Assay results: patent publication US20260325500A1, “METHODS AND COMPOSITIONS FOR TREATING ACUTE STRESS DISORDER” (BioXcel Therapeutics, Inc., priority 2022, published 2026)
Counter-ions that a name gives are not always drawn.

How the values were obtained:
[1] = tested on: Yohimbine-induced noradrenergic hyperarousal in Wistar rats; assay: Elevated plus maze, yohimbine-induced noradrenergic hyperarousal, dose response (Example 3); type: in vivo; settings: for Percent increase as referred to the Vehicle level, Entries / Percent increase as referred to the Vehicle level, Time: 60 min
Source text: Background: Yohimbine is an alpha 2-adrenergic receptor antagonist reported to trigger panic attacks in healthy volunteers and to exacerbate symptoms in patients with panic disorder (Charney et al., 1992 Acta Psychiatr Scand., Vol. 86 (4): 273-282). Peripheral administration of Yohimbine causes noradrenergic mediated hyperarousal in rats as assessed by the EPM paradigm.
Rationale: The drug yohimbine is a natural product used to test a specific pathway, noradrenergic-mediated hyper-arousal. It is well established that yohimbine is an alpha2-adrenergic receptor antagonist and activates the locus coeruleus (LC) and increases noradrenergic signaling (the opposite of alpha2-adrenergic agonists like dexmedetomidine and clonidine). Increased LC activity and noradrenergic signaling makes animals anxious and agitated which can be measured by using the elevated plus maze. In the elevated plus maze, rodents were in the closed arms and explored the open arms depending on their anxiety and agitation (rats and mice normally explore their environments extensively when calm). […] This behavior is correlated to increased level of anxiety caused by noradrenergic mediated hyperarousal.
Animal groups: Rats were distributed in 9 different experimental groups with 12 […] per group as illustrated in Table 6. Each experimental group was also coded so that the experimenter became unaware of the true experimental group at the time EPM trial.
Acclimatization: Male Wistar rats (Janvier; Le Genest St Isle-France) were used for the study. They were purchased at a body weight of 150 g and reached a body weight of about 220 g at the time of use. They were group-housed (3-4 rats per cage) and maintained in a room with controlled temperature (21-22° C.) and a reversed light-dark cycle (12 h/12 h; lights on: 17:30-05:30; lights off: 05:30-17:30).
Drug preparation: All compounds/drugs were prepared in normal saline (0.9% NaCl).
Yohimbine was prepared at a solution of 2.5 mg/mL which when injected i.p. at a dosage volume of 1 mL/kg results in a dose of 2.5 mg/kg. Diazepam was prepared at a solution of 1 mg/mL which when injected i.p. at a dosage volume of 1 mL/kg results in a dose of 1 mg/kg. Latrepirdine dihydrochloride hydrate was prepared at a solution of 7.5, 2.5, 0.75 and 0.25 mg/mL which when injected i.m. at a volume of 100 μL for a rat of 250 g results in doses of 3; 1; 0.3 and 0.1 mg/kg; respectively. Latrepirdine dihydrochloride hydrate was also prepared at […] which when administrated i.p. at a dosage volume of 1 mL/kg results in a dose of 3 mg/kg.
Experimental procedure: The rats were randomly assigned to one of the different experimental groups. Each animal was identified by its group name, cage number, series (day) of experiment, and a number (from 1 to 9) written with permanent ink on its tail. They were handled by an experimenter for about 3 min each day during 1 week prior to the day of EPM trial. The apparatus was a PVC maze covered with Plexiglas and subdivided into four equal exploratory arms (40×10 cm), which were all interconnected by a small platform (10×10 cm). The apparatus was placed 65 cm above the floor. Two arms were opened, and two others were closed with wall (high: 10 cm). After compound administration, rat was placed on the platform opposite a closed arm. The number of entries and the time spent in each arm were recorded during a 5 min period. The animal was considered as entered in an arm when it placed its four paws in the arm. The apparatus was cleaned between each animal using alcohol (70%). Urine and feces were removed from the maze. During the trials, animal handling and the visibility of the operator were minimized as much as possible.
Statistical analysis: Analysis of variance (ANOVA) was performed on the result data. Fisher's PLSD was used for pairwise comparisons and p value≤0.05 were considered significant. […]

[2] = tested on: rat forced swim test model (depressive-like behavior); assay: Forced swim test in dark phase (Example 4); type: in vivo, Sprague Dawley rats; settings: 1 mg/kg, i.m.; versus vehicle saline
Source text: Animal groups: Male Sprague Dawley (SD) rats (8-10 weeks old) were grouped housed 2 per cage in standard animal cages with facilities for pelleted food and drinking water in polycarbonate bottle with stainless steel sipper tubes. During the experimental period, animals were housed in a single experimental room. Rats were distributed in 7 different experimental groups with 9-12 rats per group as illustrated in Table 8. Animals were distributed to different groups based on body weight data. Each experimental group was also coded so that the experimenter became unaware of the true experimental group at the time FST trial.
Animals were housed in an environment-controlled room at 22±3° C. and relative humidity of 30 to 70 percent. During the study, 12/12 light/dark cycles were maintained. Lights of the acclimatization area were switched off at 06:00 PM. All experiments were carried out at ambient temperature under dark phase of lighting (between 06:00 PM to 06:00 AM). Adequate fresh air supply of 12-15 air changes/hour was maintained in the experimental room. The maximum and minimum temperature and relative humidity in the experimental rooms was recorded once daily. The relative humidity in the experimental room was calculated daily from dry and wet bulb temperature recordings.
Swim 1 was carried out between 18:30 to 21:30.
Swim 2 was carried out between 19:30 to 21:30. Animals were administered test compounds from 18:30 onwards in staggered manner 60 minutes before FST 2.
Forced swim test was carried out in dark phase
On Day 1, animals were subjected to forced swim test training for 15 minutes (Swim 1) and on Day 2, Swim 2 was carried out post treatment.
On day 2 animals were dosed with respective treatment 60 min prior to performing FST.
Forced swim test (Swim 2) was scored manually with no video recording.
Forced swim test (FST), was used to study the depressive-like behavior in rodents. The test was carried out in transparent cylindrical glass containers measuring 46 cm in height and 20 cm in diameter.
There were 2 swim sessions, 24 h apart. The first session, Swim 1 was the pretest/training stage (15 min) and the second session, Swim 2, was the test stage (8 min).
In swim 2, first 1-minute data was excluded from analysis and rest 7 minutes data was considered. In 7 minutes, data, it was divided 5 minutes and 2 minute.
Twenty-four hours after the start of Swim 1, the test swim (Swim 2) was carried out.
Rat was placed in the water-filled cylinder for 8 min (Swim 2).
The duration of time spent immobile, swimming, and climbing was observed by an observer blind to the treatment group.
Immobility period: A rat was judged to be immobile when it remained floating in the water without struggling and was making only those movements necessary to keep its head above water.
Statistical analysis: One Way ANOVA, Dunnet's multiple comparison test was applied with respect to vehicle saline and Tukey's multiple comparison test was applied to compare the data in between the groups using GraphPad Prism version 9 software.

[3] = 0.1 mg/kg, i.m., yohimbine hydrochloride 2.5 mg/kg i.p.
[4] = 0.3 mg/kg, i.m., yohimbine hydrochloride 2.5 mg/kg i.p.
[5] = 1 mg/kg, i.m., yohimbine hydrochloride 2.5 mg/kg i.p.
[6] = 3 mg/kg, i.m., saline (yohimbine-free rats)
[7] = 3 mg/kg, i.m., yohimbine hydrochloride 2.5 mg/kg i.p.
[8] = 3 mg/kg, i.p., yohimbine hydrochloride 2.5 mg/kg i.p.

Structure (SMILES): Cc1ccc2c(c1)c1c(n2CCc2ccc(C)nc2)CCN(C)C1 [latrepirdine dihydrochloride hydrate]
- Percent increase as referred to the Vehicle level, Entries [1, 3]: 21%
- Percent increase as referred to the Vehicle level, Time [1, 3]: 21%
- Percent increase as referred to the Vehicle level, Entries [1, 4]: 11%
- Percent increase as referred to the Vehicle level, Time [1, 4]: 73%
- Percent increase as referred to the Vehicle level, Entries [1, 5]: 106%
- Percent increase as referred to the Vehicle level, Time [1, 5]: 274%
- EPM performance of saline-treated rats (yohimbine-free) ([1]; 3 mg/kg i.m.): did not significantly modify the EPM performance
- EPM performance, i.m. compared with i.p. route ([1]; 3 mg/kg, yohimbine rats): comparable to that of specimens treated intraperitoneally
- Percent increase as referred to the Vehicle level, Entries [1, 6]: 167%
- Percent increase as referred to the Vehicle level, Time [1, 6]: 377%
- Percent increase as referred to the Vehicle level, Entries [1, 7]: 172%
- Percent increase as referred to the Vehicle level, Time [1, 7]: 392%
- Percent increase as referred to the Vehicle level, Entries [1, 8]: 183%
- Percent increase as referred to the Vehicle level, Time [1, 8]: 486%
- noradrenergic mediated hyperarousal in yohimbine administered rats ([1]; 1 and 3 mg/kg): Conclusion: The results showed that latrepirdine dihydrochloride hydrate (at 1 and 3 mg/kg) significantly reduced noradrenergic mediated hyperarousal in yohimbine administered rats in dose-dependent manner (see table 7 and FIGS. 5 and 6).
- number of visits to and time spent into the open arms, significance ([1]; i.m., yohimbine administered rats, 0.1-3 mg/kg): effect was significant at the doses of 1 and 3 mg/kg
- increase in swimming time [2]: 9.8%
